Test results as given in the supplement of paper PMC10627819.

Key:
Test in all cases: fitness (endpoint OD595 vs no drug) (fraction); higher = more growth
B. subtilis 168 = test system: B. subtilis 168
How it was run: (§1)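 Fitness compares growth at the stationary-phase transition with the robust mean of no-drug control wells, as a ratio of optical densities. The ratio is capped at 1. Wells of 384-well plates held 30 µl, or 55 µl for S. pneumoniae, inoculated at OD595 0.01. Readings at OD595 every 30 min for 14 h at 37 °C were corrected against the first reading.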

S. aureus Newman = test system: S. aureus Newman
How it was run: as §1

S. pneumoniae D39V = test system: S. pneumoniae D39V
How it was run: as §1
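Note: OD595 on entry to stationary phase over no-drug wells; at most 1.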

O=C(O)[C@H]1/C(=C/CO)O[C@@H]2CC(=O)N21 [Clavulanic acid] + COc1ccc(C[C@H](N)C(=O)N[C@H]2[C@@H](O)[C@H](n3cnc4c(N(C)C)ncnc43)O[C@@H]2CO)cc1 [Puromycin]
Settings	fitness
B. subtilis 168, first compound 1.5 µg/mL, partner 0.39 µg/mL	0.919
B. subtilis 168, first compound 1.5 µg/mL, partner 0.78 µg/mL	0.995
B. subtilis 168, first compound 1.5 µg/mL, partner 1.56 µg/mL	0.888
B. subtilis 168, first compound 3 µg/mL, partner 0.39 µg/mL	0.872
B. subtilis 168, first compound 3 µg/mL, partner 0.78 µg/mL	0.871
B. subtilis 168, first compound 3 µg/mL, partner 1.56 µg/mL	0.851
B. subtilis 168, first compound 6 µg/mL, partner 0.39 µg/mL	0.787
B. subtilis 168, first compound 6 µg/mL, partner 0.78 µg/mL	0.76
B. subtilis 168, first compound 6 µg/mL, partner 1.56 µg/mL	0.775
S. pneumoniae D39V, first compound 0.5 µg/mL, partner 1 µg/mL	≥ 1
S. pneumoniae D39V, first compound 0.5 µg/mL, partner 2 µg/mL	0.931
S. pneumoniae D39V, first compound 1 µg/mL, partner 1 µg/mL	0.937
S. pneumoniae D39V, first compound 1 µg/mL, partner 2 µg/mL	0.891
S. pneumoniae D39V, first compound 1 µg/mL, partner 4 µg/mL	0.528
S. pneumoniae D39V, first compound 2 µg/mL, partner 1 µg/mL	0.72
S. pneumoniae D39V, first compound 2 µg/mL, partner 2 µg/mL	0.793

fitness, S. aureus Newman, one replicate
Settings	first compound 0.03125 µg/mL	first compound 0.0625 µg/mL	first compound 0.125 µg/mL
partner 0.39 µg/mL	0.952	≥ 1	0.89
partner 0.78 µg/mL	0.91	≥ 1	0.901
partner 1.56 µg/mL	≥ 1	0.99	0.894

O=C(O)[C@H]1/C(=C/CO)O[C@@H]2CC(=O)N21 [Clavulanic acid] + COc1cccc2c1C(=O)c1c(O)c3c(c(O)c1C2=O)C[C@@](O)(C(=O)CO)C[C@@H]3O[C@H]1C[C@H](N)[C@H](O)[C@H](C)O1 [Doxorubicin]
Settings	fitness
B. subtilis 168, first compound 1.5 µg/mL, partner 0.625 µg/mL	0.911
B. subtilis 168, first compound 1.5 µg/mL, partner 1.25 µg/mL	0.9
B. subtilis 168, first compound 1.5 µg/mL, partner 2.5 µg/mL	0.696
B. subtilis 168, first compound 3 µg/mL, partner 0.625 µg/mL	0.849
B. subtilis 168, first compound 3 µg/mL, partner 1.25 µg/mL	0.88
B. subtilis 168, first compound 3 µg/mL, partner 2.5 µg/mL	0.625
B. subtilis 168, first compound 6 µg/mL, partner 0.625 µg/mL	0.792
B. subtilis 168, first compound 6 µg/mL, partner 1.25 µg/mL	0.736
S. pneumoniae D39V, first compound 0.5 µg/mL, partner 0.25 µg/mL	0.933
S. pneumoniae D39V, first compound 0.5 µg/mL, partner 0.5 µg/mL	0.954
S. pneumoniae D39V, first compound 0.5 µg/mL, partner 1 µg/mL	0.838
S. pneumoniae D39V, first compound 1 µg/mL, partner 0.25 µg/mL	0.885
S. pneumoniae D39V, first compound 1 µg/mL, partner 0.5 µg/mL	0.853
S. pneumoniae D39V, first compound 1 µg/mL, partner 1 µg/mL	0.813
S. pneumoniae D39V, first compound 2 µg/mL, partner 1 µg/mL	0.706

fitness, S. aureus Newman, one replicate
Settings	first compound 0.03125 µg/mL	first compound 0.0625 µg/mL	first compound 0.125 µg/mL
partner 0.625 µg/mL	0.979	0.984	0.882
partner 1.25 µg/mL	0.905	0.883	0.803
partner 2.5 µg/mL	0.739	0.755	0.753

O=C(O)[C@H]1/C(=C/CO)O[C@@H]2CC(=O)N21 [Clavulanic acid] + C[C@@H]1O[C@@H]1P(=O)(O)O [Fosfomycin]
fitness
Settings	first compound 0.5 µg/mL	first compound 1 µg/mL	first compound 1.5 µg/mL	first compound 2 µg/mL	first compound 3 µg/mL	first compound 6 µg/mL
B. subtilis 168, partner 1.562 µg/mL	–	–	0.691	–	0.644	0.559
B. subtilis 168, partner 3.124 µg/mL	–	–	0.564	–	0.529	0.453
B. subtilis 168, partner 6.248 µg/mL	–	–	0.478	–	0.416	0.301
S. pneumoniae D39V, partner 1.25 µg/mL	0.953	0.905	–	0.821	–	–
S. pneumoniae D39V, partner 2.5 µg/mL	0.933	0.872	–	0.802	–	–

fitness, S. aureus Newman, one replicate
Settings	first compound 0.03125 µg/mL	first compound 0.0625 µg/mL	first compound 0.125 µg/mL
partner 0.781 µg/mL	0.96	0.885	0.841
partner 1.562 µg/mL	0.679	0.626	0.598
partner 3.124 µg/mL	0.396	0.382	0.349

O=C(O)[C@H]1/C(=C/CO)O[C@@H]2CC(=O)N21 [Clavulanic acid] + Cn1nnc(-c2ccc(-c3ccc(N4C[C@H](CO)OC4=O)cc3F)cn2)n1 [Tedizolid]
fitness, S. aureus Newman, one replicate
Settings	first compound 0.03125 µg/mL	first compound 0.0625 µg/mL	first compound 0.125 µg/mL
partner 0.0625 µg/mL	0.827	0.837	0.868
partner 0.125 µg/mL	0.498	0.509	0.523
partner 0.25 µg/mL	0.0634	0.0552	0.0639

fitness, S. pneumoniae D39V
Settings	partner 0.03125 µg/mL	partner 0.0625 µg/mL	partner 0.125 µg/mL	partner 0.25 µg/mL	partner 0.5 µg/mL
first compound 0.5 µg/mL	0.953	0.943	0.693	0.261	0.0809
first compound 1 µg/mL	0.887	0.938	0.673	0.371	0.227
first compound 2 µg/mL	0.855	0.901	0.581	0.262	0.0776

O=C(O)[C@H]1/C(=C/CO)O[C@@H]2CC(=O)N21 [Clavulanic acid] + N[C@@H]1CONC1=O [Cycloserine D]
fitness, B. subtilis 168
Settings	first compound 1.5 µg/mL	first compound 3 µg/mL	first compound 6 µg/mL
partner 0.125 µg/mL	0.903	0.909	0.792
partner 0.25 µg/mL	0.957	0.861	0.801
partner 0.5 µg/mL	0.946	0.915	0.832

fitness, S. aureus Newman, one replicate
Settings	first compound 0.03125 µg/mL	first compound 0.0625 µg/mL	first compound 0.125 µg/mL
partner 0.375 µg/mL	0.902	0.954	0.885
partner 0.75 µg/mL	0.884	0.942	0.888
partner 1.5 µg/mL	0.899	0.858	0.897

CNC(C)C1CCC(N)C(OC2C(N)CC(N)C(OC3OCC(C)(O)C(NC)C3O)C2O)O1 (stereo unspecified) [Gentamicin] + CO[C@@]12[C@H](COC(N)=O)C3=C(C(=O)C(C)=C(N)C3=O)N1C[C@@H]1N[C@@H]12 [Mitomycin C]
fitness, S. aureus Newman, one replicate, main component drawn
Settings	first compound 0.375 µg/mL	first compound 0.75 µg/mL	first compound 1.5 µg/mL
partner 0.0156 µg/mL	0.755	0.779	0.774
partner 0.0312 µg/mL	0.762	0.725	0.707
partner 0.0625 µg/mL	0.602	0.603	0.607

fitness, main component drawn
Settings	partner 0.001075 µg/mL	partner 0.002 µg/mL	partner 0.00215 µg/mL	partner 0.004 µg/mL	partner 0.0043 µg/mL	partner 0.008 µg/mL	partner 0.0156 µg/mL	partner 0.0312 µg/mL	partner 0.0625 µg/mL
S. aureus Newman, first compound 0.5 µg/mL	–	–	–	–	–	–	0.762	0.667	0.558
S. aureus Newman, first compound 1 µg/mL	–	–	–	–	–	–	0.797	0.698	0.601
S. aureus Newman, first compound 2 µg/mL	–	–	–	–	–	–	0.808	0.732	0.585
S. pneumoniae D39V, first compound 2 µg/mL	0.975	0.787	0.969	0.685	0.844	0.395	–	–	–
S. pneumoniae D39V, first compound 4 µg/mL	0.94	0.729	0.915	0.602	0.807	0.369	–	–	–
S. pneumoniae D39V, first compound 8 µg/mL	0.946	0.715	0.929	0.608	0.827	0.346	–	–	–
